Reference: ChEMBL document CHEMBL1159126, “Salicylanilide carbamates: antitubercular agents active against multidrug-resistant Mycobacterium tuberculosis strains” (Bioorg Med Chem, 2010)
In brackets after ≈: the same amount, converted by molar mass.

Legend:
Assay in all cases: microbe, parasite or virus in culture
[1] = tested on: Mycobacterium tuberculosis; details: isolate 7357/98, 504 h
[2] = tested on: Mycobacterium tuberculosis; details: isolate 9449/06, 504 h
[3] = tested on: Mycobacterium tuberculosis; details: isolate Praha 1, 504 h
[4] = tested on: Mycobacterium tuberculosis; details: isolate 9449/06, 336 h
[5] = tested on: Mycobacterium tuberculosis; details: isolate 2092/05, 336 h
[6] = tested on: Mycobacterium tuberculosis; details: isolate Praha 1, 336 h
[7] = tested on: Mycobacterium tuberculosis; details: isolate Praha 128, 504 h
[8] = tested on: Mycobacterium tuberculosis; details: isolate 7357/98, 336 h
[9] = tested on: Mycobacterium tuberculosis; details: isolate Praha 128, 336 h
[10] = tested on: Mycobacterium tuberculosis; details: isolate 2092/05, 504 h

SMILES | MIC [1] [µM] | MIC [2] [µM] | MIC [3] [µM] | MIC [4] [µM] | MIC [5] [µM] | MIC [6] [µM] | MIC [7] [µM] | MIC [8] [µM] | MIC [9] [µM] | MIC [10] [µM]
CCCCCCNC(=O)Oc1ccc(Cl)cc1C(=O)Nc1ccc(Cl)c(Cl)c1 | 1 (≈ 0.444 µg/mL) | 0.5 (≈ 0.222 µg/mL) | 1 (≈ 0.444 µg/mL) | 0.5 (≈ 0.222 µg/mL) | 0.5 (≈ 0.222 µg/mL) | 0.5 (≈ 0.222 µg/mL) | 0.5 (≈ 0.222 µg/mL) | 0.5 (≈ 0.222 µg/mL) | 0.5 (≈ 0.222 µg/mL) | 0.5 (≈ 0.222 µg/mL)
CCNC(=O)Oc1ccc(Cl)cc1C(=O)Nc1ccc(Cl)c(Cl)c1 | 1 (≈ 0.388 µg/mL) | 0.5 (≈ 0.194 µg/mL) | 1 (≈ 0.388 µg/mL) | 0.5 (≈ 0.194 µg/mL) | 0.5 (≈ 0.194 µg/mL) | 0.5 (≈ 0.194 µg/mL) | 0.5 (≈ 0.194 µg/mL) | 0.5 (≈ 0.194 µg/mL) | 0.5 (≈ 0.194 µg/mL) | 0.5 (≈ 0.194 µg/mL)
CCCCNC(=O)Oc1ccc(Cl)cc1C(=O)Nc1ccc(Cl)c(Cl)c1 | 1 (≈ 0.416 µg/mL) | 0.5 (≈ 0.208 µg/mL) | 1 (≈ 0.416 µg/mL) | 1 (≈ 0.416 µg/mL) | 0.5 (≈ 0.208 µg/mL) | 0.5 (≈ 0.208 µg/mL) | 1 (≈ 0.416 µg/mL) | 0.5 (≈ 0.208 µg/mL) | 0.5 (≈ 0.208 µg/mL) | 1 (≈ 0.416 µg/mL)
CCCCCNC(=O)Oc1ccc(Cl)cc1C(=O)Nc1ccc(Cl)c(Cl)c1 | 0.5 (≈ 0.215 µg/mL) | 0.5 (≈ 0.215 µg/mL) | 1 (≈ 0.43 µg/mL) | 0.5 (≈ 0.215 µg/mL) | 0.5 (≈ 0.215 µg/mL) | 0.5 (≈ 0.215 µg/mL) | 0.5 (≈ 0.215 µg/mL) | 0.5 (≈ 0.215 µg/mL) | 0.5 (≈ 0.215 µg/mL) | 0.5 (≈ 0.215 µg/mL)
CCCCCNC(=O)Oc1ccc(Cl)cc1C(=O)Nc1ccc(Cl)cc1 | 2 (≈ 0.791 µg/mL) | 1 (≈ 0.395 µg/mL) | 2 (≈ 0.791 µg/mL) | 1 (≈ 0.395 µg/mL) | 1 (≈ 0.395 µg/mL) | 1 (≈ 0.395 µg/mL) | 1 (≈ 0.395 µg/mL) | 1 (≈ 0.395 µg/mL) | 1 (≈ 0.395 µg/mL) | 1 (≈ 0.395 µg/mL)
CCCCCCCNC(=O)Oc1ccc(Cl)cc1C(=O)Nc1ccc(Cl)c(Cl)c1 | 0.5 (≈ 0.229 µg/mL) | 0.5 (≈ 0.229 µg/mL) | 1 (≈ 0.458 µg/mL) | 0.5 (≈ 0.229 µg/mL) | 0.5 (≈ 0.229 µg/mL) | 0.5 (≈ 0.229 µg/mL) | 1 (≈ 0.458 µg/mL) | 0.5 (≈ 0.229 µg/mL) | 0.5 (≈ 0.229 µg/mL) | 1 (≈ 0.458 µg/mL)
CCCCCCCCNC(=O)Oc1ccc(Cl)cc1C(=O)Nc1ccc(Cl)c(Cl)c1 | 1 (≈ 0.472 µg/mL) | 0.5 (≈ 0.236 µg/mL) | 2 (≈ 0.944 µg/mL) | 1 (≈ 0.472 µg/mL) | 0.5 (≈ 0.236 µg/mL) | 1 (≈ 0.472 µg/mL) | 1 (≈ 0.472 µg/mL) | 1 (≈ 0.472 µg/mL) | 0.5 (≈ 0.236 µg/mL) | 1 (≈ 0.472 µg/mL)
CCCCCCNC(=O)Oc1ccc(Cl)cc1C(=O)Nc1cccc(Cl)c1 | 1 (≈ 0.409 µg/mL) | 1 (≈ 0.409 µg/mL) | 2 (≈ 0.819 µg/mL) | 1 (≈ 0.409 µg/mL) | 1 (≈ 0.409 µg/mL) | 1 (≈ 0.409 µg/mL) | 2 (≈ 0.819 µg/mL) | 1 (≈ 0.409 µg/mL) | 1 (≈ 0.409 µg/mL) | 2 (≈ 0.819 µg/mL)
NNC(=O)c1ccncc1 [ISONIAZID] | 16 (≈ 2.19 µg/mL) | 16 (≈ 2.19 µg/mL) | 16 (≈ 2.19 µg/mL) | 16 (≈ 2.19 µg/mL) | 16 (≈ 2.19 µg/mL) | 16 (≈ 2.19 µg/mL) | 16 (≈ 2.19 µg/mL) | 16 (≈ 2.19 µg/mL) | 16 (≈ 2.19 µg/mL) | 16 (≈ 2.19 µg/mL)
